Source: PubChem BioAssay (NCI)
“And” between values parts separate entries of the source, which are not always exact repeats. Identical values can stand only once.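 Values below derive from 48-hour exposures of cells grown in 96-well plates, with endpoints linearly interpolated between the two concentrations bracketing the appropriate inhibition level. Here, GI50 denotes the concentration required for 50% inhibition of growth. TGI is the concentration that stops growth completely.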

Legend:
Experiment in all cases: NCI anticancer screen, dose series, 48 h
[1] = tested on: A498 renal
[2] = tested on: A549 NSCLC
[3] = tested on: CCRF-CEM leukemia
[4] = tested on: HCT-116 colon
[5] = tested on: HOP-92 NSCLC
[6] = tested on: K-562 leukemia
[7] = tested on: OVCAR-3 ovarian
[8] = tested on: SNB-19 CNS
[9] = tested on: UACC-62 melanoma
[10] = tested on: MDA-MB-435

Structure (SMILES)	TGI [1]	TGI [2]	TGI [3]	TGI [4]	TGI [5]	TGI [6]	TGI [7]	TGI [8]	TGI [9]	GI50 [1]	GI50 [2]	GI50 [3]	GI50 [4]	GI50 [6]	GI50 [10]	TGI [10]	GI50 [7]	GI50 [8]	GI50 [5]	GI50 [9]
COc1ccc2nc(C(=O)c3ccccc3)c(C)cc2c1	10.3 µM	> 70 µM	> 100 µM	> 40.7 µM	67.1 µM	> 100 µM	> 24.3 µM	> 100 µM	> 100 µM											
COC1CC(O)C(OC(=O)c2ccccc2)C(C)O1 (configuration not stated)	> 100 µM	> 100 µM	> 100 µM	> 100 µM	> 100 µM	> 100 µM	> 100 µM	> 100 µM	> 100 µM											
Cc1ccc2nc(NC(=O)C(=O)C(C#N)c3ccc(Cl)cc3)sc2c1 (configuration not stated)		> 50 µM		> 50 µM	> 50 µM		> 50 µM	> 50 µM	> 50 µM											
COc1ccccc1NC(=O)C1=C(C)NC(C)=C(C(=O)Nc2ccccc2OC)C1/C=C/c1ccccc1	> 100 µM	> 100 µM	> 100 µM	> 100 µM	> 100 µM	> 100 µM	> 100 µM	> 100 µM	> 100 µM											
c1ccc(OCCC[P+](c2ccccc2)(c2ccccc2)c2ccccc2)cc1	7.97 µM	20.3 µM	18.1 µM	13.4 µM		16.3 µM	19.4 µM	17.8 µM		1.94 µM	2.36 µM	1.85 µM	1.42 µM	0.634 µM	0.481 µM	10.3 µM	1.12 µM	2.27 µM		
CC/C(Cc1ccccc1)=C(\c1ccc(OCCN2CCCC2)cc1)c1ccc(OC(=O)NCc2ccccc2)cc1		3.47 µM	7.56 µM	3 µM	3.19 µM	4.4 µM	3.56 µM	4.58 µM	3.24 µM		1.88 µM	2.83 µM	1.64 µM	1.7 µM	1.67 µM	3.12 µM	1.86 µM	2.15 µM	1.58 µM	1.81 µM
Cc1cc(-c2c(F)cc3c4nn([C@H]5CC[C@@H](N(C)C)CC5)c(=O)c-4cn(C4CC4)c3c2F)cc(C)n1	0.0558 µM and 0.471 µM			0.356 µM and 1.27 µM			2.66 µM	> 100 µM	0.255 µM and 0.754 µM	0.141 µM		0.0033 µM	0.0391 µM	0.164 µM					0.244 µM	0.0468 µM
CCOC(=O)/C(=C/c1cccc(Cl)c1)N(CC)CC	> 100 µM	> 100 µM	> 100 µM	> 100 µM	84.2 µM	> 100 µM			> 100 µM											
C/C(CN1C(=O)c2ccccc2C1=O)=N\NS(=O)(=O)c1cccc(C(=O)O)c1	> 100 µM	> 100 µM	> 100 µM	> 100 µM		> 100 µM	> 100 µM	> 100 µM	> 100 µM											
CC1=C(C(=O)Nc2ccccc2)C(c2ccccc2Cl)C(C(=O)Nc2ccccc2)=C(C)N1	58.5 µM	> 100 µM	62.1 µM	47.6 µM	45.2 µM	93.5 µM	40.5 µM	92.7 µM	27.2 µM											
CCCCC#Cc1c(I)n(C)c(=O)[nH]c1=O	32.7 µM	34.9 µM	3.68 µM	3.07 µM		3.46 µM	2.88 µM	29.1 µM	12.2 µM	18.7 µM	19.3 µM	1.74 µM	1.7 µM	1.82 µM	1.64 µM	3.88 µM	1.54 µM	14.6 µM		3.39 µM
COc1ccc(-c2ccc(/C=N/n3c(COc4ccccc4Cl)nn(CN4CCOCC4)c3=S)o2)c([N+](=O)[O-])c1		> 100 µM	47.9 µM	41.1 µM	52.6 µM	41 µM	52.4 µM	> 100 µM	> 100 µM		27.4 µM	18.7 µM	19.6 µM	18.2 µM	17.1 µM	42.3 µM	16.7 µM	36.2 µM	21.6 µM	35 µM
CC(C)c1cccc(C(C)C)c1N1C(=O)C(=O)C(c2nc3ccccc3o2)C(=O)C1=O	> 100 µM	> 100 µM	> 100 µM	> 100 µM	> 100 µM	> 100 µM	> 100 µM	> 100 µM	> 100 µM											
COc1ccc(C2=Nc3ccccc3SC(C)C2)cc1OC (configuration not stated)	39.8 µM		87.3 µM	32.1 µM	> 100 µM	56.6 µM	30.8 µM	40.2 µM	32.4 µM											
[N-]=[N+]=NCCCn1c2c(c3ccc([N+](=O)[O-])cc3c1=O)C(=O)c1cc(Br)ccc1-2		> 100 µM	> 100 µM	> 100 µM	> 100 µM	> 100 µM	> 100 µM	> 100 µM	> 100 µM		> 100 µM	0.545 µM	3.01 µM	> 100 µM	> 100 µM	> 100 µM	> 100 µM	> 100 µM	37.7 µM	> 100 µM
Cc1cc(N(CCOS(C)(=O)=O)CCOS(C)(=O)=O)ccc1C(=O)O		> 100 µM	> 100 µM	> 100 µM	> 100 µM	> 100 µM	> 100 µM	> 100 µM	> 100 µM		> 100 µM	67.4 µM	> 100 µM	> 100 µM	> 100 µM	> 100 µM	> 100 µM	> 100 µM	37.1 µM	> 100 µM
N#Cc1ccccc1NC(=O)C(=O)C1NC(=S)NC1=O (configuration not stated)	> 100 µM	> 100 µM	> 100 µM	> 100 µM	> 100 µM	> 100 µM	> 100 µM	> 100 µM	> 100 µM											
Cn1cc(C2=C(c3c[nH]c4ccccc34)C(=O)NC2=O)c2ccccc21	0.755 µM	> 25 µM		> 25 µM		> 25 µM	> 11.9 µM	> 25 µM	> 25 µM	0.169 µM	1.66 µM	0.264 µM	1.51 µM	0.704 µM	0.937 µM	> 25 µM	0.94 µM	3.31 µM		1.59 µM
O=C(O)CCNS(=O)(=O)c1ccc2ccccc2c1	> 100 µM	> 100 µM	> 100 µM		> 100 µM	> 100 µM	> 100 µM	> 100 µM	> 100 µM											

Structure (SMILES)	TGI [1]	TGI [2]	TGI [3]	TGI [4]	TGI [5]	TGI [6]	TGI [7]	TGI [8]	TGI [9]	GI50 [1]	GI50 [2]	GI50 [3]	GI50 [4]	GI50 [6]	GI50 [10]	TGI [10]	GI50 [7]	GI50 [8]	GI50 [5]	GI50 [9]
COc1ccc2oc3c(OC)c(OC)c(OC)cc3c(=O)c2c1	> 100 µM	> 100 µM	> 100 µM	> 100 µM		> 100 µM		> 100 µM	> 100 µM											
CCOC(=O)c1cc(-c2ccc(-c3cc(C(=O)OCC)c(C#N)c(N)c3C#N)cc2)c(C#N)c(N)c1C#N		> 100 µM	> 100 µM	> 100 µM		> 100 µM	> 100 µM	> 100 µM	> 100 µM											
Cc1ccc(N=C[N-]c2ccc(C)cc2)cc1.Cc1ccc(N=C[N-]c2ccc(C)cc2)cc1.O=C([O-])C(F)(F)F.O=C([O-])C(F)(F)F.[OH3+].[OH3+].[Rh+2].[Rh+2]		> 100 µM	55.8 µM	35.4 µM		67.1 µM	> 100 µM	> 100 µM	87.9 µM		> 100 µM	23.2 µM	16.7 µM	25.4 µM			62 µM	58.6 µM		32.4 µM
COCCOc1cc(C)cc(/C=C(C)/C=C/C2=C(C)CCCC2(C)C)n1	> 100 µM	> 100 µM		> 100 µM	> 100 µM		> 100 µM	> 100 µM	> 100 µM											
NC1c2ccccc2Nc2ccccc21	22.8 µM	19.8 µM	25.7 µM	13.6 µM	16.1 µM	14.5 µM	28.9 µM	27.7 µM	15.5 µM											
O=C(C(=O)n1ncc(Cl)c(Cl)c1=O)n1ncc(Cl)c(Cl)c1=O	> 100 µM	> 100 µM	29.7 µM	29.5 µM	49.9 µM	> 100 µM	68.2 µM	> 100 µM	32.2 µM											
CCCCCC(=O)Nc1nc2nc[nH]c2c(=O)[nH]1	> 100 µM	> 100 µM	> 100 µM	> 100 µM	> 100 µM	> 100 µM	> 100 µM	> 100 µM	> 100 µM											
Cc1cccc(C(=O)O)c1C(=O)c1cccc2ccccc12	> 100 µM	> 100 µM	> 100 µM	> 100 µM		> 100 µM	> 100 µM	> 100 µM	> 100 µM											
CC1=C(SC#N)S(=O)(=O)N(c2ccccc2)C(C)=C1SC#N	92.1 µM	> 100 µM	45.8 µM	69.8 µM	88.7 µM	66 µM		76.5 µM	> 100 µM											
CCCCCCCC1(c2ccc(N)cc2)CCC(=O)NC1=O (configuration not stated)		> 100 µM			51.9 µM	> 100 µM	81.1 µM	> 100 µM	> 100 µM											
Cc1ccc(NC(=O)C(=O)CC(=O)c2c(C)n([O-])c3ccccc3[n+]2=O)cc1C	> 100 µM	> 100 µM	> 100 µM	> 100 µM	> 100 µM	> 100 µM	> 100 µM	> 100 µM	> 100 µM											
COc1cccc2cc(N(C)c3nc(C)nc4c3CCC4)ccc12	14.7 µM	14.2 µM	14.7 µM	10.4 µM	1.48 µM	31.5 µM	< 0.01 µM	21.6 µM	18.1 µM	< 0.01 µM	< 0.01 µM	< 0.01 µM	< 0.01 µM	< 0.01 µM			< 0.01 µM	< 0.01 µM	< 0.0169 µM	
Clc1ccc(-c2c3ccc(=[N+]4CCCCC4)cc-3oc3cc(N4CCCCC4)ccc23)cc1	0.15 µM		1.97 µM			0.779 µM	0.274 µM	0.313 µM	0.452 µM	0.035 µM		0.153 µM		0.153 µM			0.132 µM	0.133 µM		0.18 µM
CCC[CH2][Sn]([CH2]CCC)([S]C#N)[S]C#N		11.9 µM	0.869 µM	3.11 µM	3.5 µM	1.35 µM	2.7 µM	2.36 µM	2 µM		3.78 µM	0.224 µM	1.45 µM	0.215 µM			1.4 µM	1.12 µM	1.79 µM	0.58 µM
COc1cc(/C=C/c2ccc(O)c(OC)c2)cc(OC)c1	84.4 µM	> 100 µM	> 100 µM	> 100 µM	49.7 µM	> 100 µM		> 100 µM												
N#CC(C(=O)CCCC(=O)Nc1ccc(Cl)cc1Cl)c1ccccc1 (configuration not stated)		> 100 µM	> 100 µM	> 100 µM	> 100 µM	> 100 µM	> 100 µM	> 100 µM	> 100 µM											
Cc1ccc(C)c(N2C(=O)C(=O)C(c3nc4ccccc4o3)C(=O)C2=O)c1	> 100 µM	> 100 µM	> 100 µM	90.5 µM	> 100 µM		> 100 µM	> 100 µM	> 100 µM											
CCCCCC(O)C(O)CCC[C@H](O)[C@H]1CC[C@H]([C@H]2CC[C@H]([C@H](O)CCCCCCCCCCCCC3=C[C@H](C)OC3=O)O2)O1 (some centres not stated)		> 100 µM	8.35 µM	38.7 µM	61.7 µM	6.4 µM	8.38 µM and 31.6 µM	21.4 µM	7.54 µM		3.48 µM		0.0933 µM		6.84 µM		12.3 µM	4.61 µM		
CCCCCCCCCCCCC(O)c1ccco1 (configuration not stated)		48.1 µM	38.5 µM	52.1 µM	32.1 µM	48 µM	34.4 µM	70.7 µM	32.4 µM		25.5 µM	19.4 µM	22.2 µM	29.1 µM	19.4 µM	35.6 µM	17.9 µM	25.9 µM	15.5 µM	17.7 µM
